System: hepatocytes
Test: Seq-Well scRNA-Seq of hepatocytes after APAP overdose (signature scores, DEG vs untreated)
Format: in vivo, mouse
Conditions: APAP vs UT, composite DEG

## CC(=O)Nc1ccc(O)cc1 [APAP, acetaminophen]
  Apoa5 logFC: 0.3232
  Apob logFC: 0.5802
  Apoc3 logFC: −0.7688
  Apoc4 logFC: −1.002
  Apom logFC: −0.3024
  Aqp9 logFC: −0.3109
  Arg1 logFC: 0.3179
  Arhgap5 logFC: 0.2952
  Arhgef12 logFC: 0.5908
  Arl5a logFC: 0.2648
  Arl6ip1 logFC: −0.3649
  Arpc1b logFC: 0.2597
  Arrdc3 logFC: 0.5269
  Asgr2 logFC: 0.3064
  Asl logFC: 0.5586
  Ass1 logFC: −0.3144
  Atf5 logFC: 0.329
  Atf6 logFC: 0.3778
  Atp1a1 logFC: 0.4191
  Atp1b1 logFC: 0.3702
  Atp2a2 logFC: 0.495
  Atp2b1 logFC: 0.3321
  Atp5b logFC: 0.2917
  Atp5c1 logFC: −0.3476
  Atp5g3 logFC: −0.3002
  Atp5k logFC: −0.4773
  Atp5o logFC: −0.3316
  Atp6v1f logFC: −0.2529
  Atp11c logFC: 0.2605
  Atp13a3 logFC: 0.3945
  Atp5h logFC: −0.6398
  Atp5d logFC: 0.2501
  Atxn7l3b logFC: 0.3062
  Azin1 logFC: 0.2701
  B2m logFC: −0.418
  B4galt5 logFC: 0.4763
  BC025446 logFC: 0.2942
  BC089597 logFC: 0.2622
  Baat logFC: −0.3086
  Bach1 logFC: 0.8323
  Bbox1 logFC: −0.4082
  Bche logFC: 0.3134
  Bckdha logFC: −0.35
  Bcl2l1 logFC: 0.7751
  Bet1 logFC: −0.2966
  Bfar logFC: 0.2903
  Bhmt2 logFC: −0.3114
  Bhmt logFC: −0.5202
  Birc6 logFC: 0.3444
  Bnip3 logFC: 0.4032
  Bola3 logFC: −0.3689
  Bphl logFC: −0.4075
  Bptf logFC: 0.3245
  Brap logFC: 0.3492
  Brd2 logFC: 0.5715
  Bsg logFC: −0.3152
  Bst2 logFC: −0.3156
  Btaf1 logFC: 0.2755
  Bzw1 logFC: 0.2948
  C1qb logFC: 0.6817
  C3 logFC: 0.4495
  C4b logFC: 0.2833
  C8b logFC: −0.3602
  C8g logFC: −0.6545
  C9 logFC: −0.4271
  C130074G19Rik logFC: −0.3563
  C230081A13Rik logFC: 0.427
  Cald1 logFC: 0.3737
  Calr logFC: 0.5551
  Camk2n1 logFC: 0.2501
  Caprin1 logFC: 0.2628
  Car3 logFC: −1.036
  Car5a logFC: −0.3088
  Cars logFC: 0.3158
  Cast logFC: 0.4009
  Cbr1 logFC: 0.2847
  Ccbl1 logFC: −0.3649
  Ccl6 logFC: 0.7891
  Ccs logFC: −0.4267
  Cd1d1 logFC: 0.2912
  Cd5l logFC: 0.6935
  Cd14 logFC: 0.3621
  Cd163 logFC: 0.4408
  Cdkn1a logFC: 1.215
  Cebpa logFC: −0.3916
  Cela1 logFC: −0.2723
  Cep85l logFC: 0.2779
  Cers6 logFC: 0.5328
  Ces1b logFC: 0.373
  Ces1f logFC: −0.3126
  Ces3a logFC: −0.5253
  Ces1d logFC: −0.4289
  Cfhr1 logFC: −0.3253
  Chac2 logFC: −0.2865
  Chd1 logFC: 0.3788
  Chka logFC: 1.375
  Chpt1 logFC: 0.3566
  Cideb logFC: −0.3684
  Cidec logFC: 0.2994
  Cisd1 logFC: −0.3727
  Cldn2 logFC: −0.2511
  Cldn3 logFC: −0.3145
  Clec4f logFC: 1.108
  Clec4d logFC: 0.2636
  Cnpy2 logFC: −0.3729
  Coa6 logFC: −0.4114
  Commd6 logFC: −0.3645
  Comt logFC: −0.3684
  Copb2 logFC: 0.2839
  Copz1 logFC: 0.2577
  Coq9 logFC: −0.3479
  Coro1c logFC: 0.3067
  Cox4i1 logFC: −0.516
  Cox5a logFC: 0.4024
  Cox6a1 logFC: −0.4872
  Cox6b1 logFC: −0.362
  Cox6c logFC: −0.8443
  Cox8a logFC: 0.4417
  Cpne3 logFC: 0.258
  Cpt1a logFC: 0.3729
  Crat logFC: 0.2556
  Creb3l2 logFC: 0.4272
  Creb3l3 logFC: 0.2757
  Creg1 logFC: 0.2768
  Creld2 logFC: 0.6087
  Csad logFC: −0.5598
  Ctage5 logFC: 0.3287
  Cth logFC: −0.5109
  Ctnnb1 logFC: 0.2957
  Ctsa logFC: 0.252
  Ctsb logFC: 0.5213
  Ctsh logFC: 0.3245
  Ctss logFC: 0.7642
  Cvp2e1 logFC: −2.319
  Cxcl1 logFC: 0.4498
  Cxcl12 logFC: −0.3058
  Cxcr2 logFC: 0.4023
  Cyp4f14 logFC: −0.2959
  Cyp4f15 logFC: −0.2998
  Cyp27a1 logFC: −0.3735
  D10Jhu81e logFC: −0.3957
  D10Wsu102e logFC: 0.5878
  D17Wsu92e logFC: 0.372
  Dbi logFC: −0.7164
  Ddah1 logFC: −0.312
  Ddb1 logFC: 0.2778
  Ddc logFC: −0.3608
  Ddx6 logFC: 0.4443
  Ddx27 logFC: 0.2522
  Decr1 logFC: 0.4664
  Decr2 logFC: 0.4189
  Dennd5b logFC: 0.2935
  Deptor logFC: 0.2606
  Derl2 logFC: −0.3317
  Dgat2 logFC: −0.3433
  Dhcr24 logFC: 0.4238
  Dhdh logFC: −0.3348
  Dhrs4 logFC: −0.3321
  Dhx9 logFC: 0.3504
  Dmgdh logFC: 0.2658
  Dnajb9 logFC: 0.2586
  Dnajb11 logFC: 0.3154
  Dnajc3 logFC: 0.4564
  Dnajc19 logFC: −0.316
  Dusp5 logFC: 0.2964
  Dync1h1 logFC: 0.3796
  Dync1li1 logFC: 0.2624
  Ebp logFC: −0.3553
  Ech1 logFC: −0.4291
  Echs1 logFC: −0.3316
  Eci1 logFC: −0.2764
  Eci2 logFC: 0.311
  Edem1 logFC: 0.2869
  Edf1 logFC: −0.3817
  Eef1a1 logFC: 0.4393
  Efhd2 logFC: 0.5838
  Egfr logFC: 0.505
  Egr1 logFC: 0.5846
  Ehhadh logFC: −0.2505
  Ei24 logFC: 0.2573
  Eif4b logFC: 0.3682
  Eif4g2 logFC: 0.5597
  Eif5 logFC: 0.5763
  Ell2 logFC: 0.4172
  Elovl2 logFC: 0.4522
  Elovl3 logFC: −0.676
  Ephx2 logFC: −0.3693
  Eprs logFC: 0.3701
  Erbb2ip logFC: 0.3332
  Erp44 logFC: 0.2795
  Esd logFC: −0.2808
  Ethe1 logFC: −0.3334
  Etnppl logFC: 0.4967
  Ets2 logFC: 0.6956
  F2 logFC: 0.3213
  F9 logFC: 0.2568
  F10 logFC: 0.2791
  F12 logFC: 0.2567
  Fah logFC: 0.3025
  Fam25c logFC: −0.2977
  Fam107b logFC: 0.4633
  Fam120a logFC: 0.28

Source: patent US20230053540A1, “TREATMENT OF LIVER INJURY” (Massachusetts Institute of Technology, priority 2019, published 2023)
